Data taken from ChEMBL document CHEMBL1137565, “Discovery of novel 8-azoniabicyclo[3.2.1]octane carbamates as muscarinic acetylcholine receptor antagonists” (Bioorg Med Chem Lett, 2007).

What was measured:
[1] = target: Muscarinic acetylcholine receptors; M2 & M3 (Homo sapiens) (UniProt P20309+P08172); assay: Selectivity for cloned muscarinic M3 receptor over cloned muscarinic M2 receptor
[2] = target: T1, Muscarinic acetylcholine receptor M1 (Homo sapiens, UniProt P11229); assay: Antagonist activity at cloned muscarinic M1 receptor expressed in CHO cells by measuring calcium mobilization; format: functional, cell-based
T1 sequence (P11229 whole entry): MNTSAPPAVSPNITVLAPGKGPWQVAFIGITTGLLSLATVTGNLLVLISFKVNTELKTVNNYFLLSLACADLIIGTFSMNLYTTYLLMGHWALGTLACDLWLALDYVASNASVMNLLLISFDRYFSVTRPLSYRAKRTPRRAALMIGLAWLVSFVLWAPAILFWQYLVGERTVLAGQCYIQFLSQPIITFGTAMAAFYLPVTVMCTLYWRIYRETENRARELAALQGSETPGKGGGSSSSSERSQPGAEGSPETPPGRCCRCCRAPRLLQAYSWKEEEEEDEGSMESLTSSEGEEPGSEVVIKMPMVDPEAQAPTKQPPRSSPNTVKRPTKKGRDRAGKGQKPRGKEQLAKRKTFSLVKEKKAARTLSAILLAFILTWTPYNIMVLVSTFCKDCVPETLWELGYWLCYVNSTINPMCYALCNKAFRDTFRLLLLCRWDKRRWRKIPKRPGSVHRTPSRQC

[3] = target: T2, Muscarinic acetylcholine receptor M2 (Homo sapiens, UniProt P08172); assay: Antagonist activity at cloned muscarinic M2 receptor expressed in CHO cells by measuring calcium mobilization; format: functional, cell-based
T2 sequence (P08172 whole entry): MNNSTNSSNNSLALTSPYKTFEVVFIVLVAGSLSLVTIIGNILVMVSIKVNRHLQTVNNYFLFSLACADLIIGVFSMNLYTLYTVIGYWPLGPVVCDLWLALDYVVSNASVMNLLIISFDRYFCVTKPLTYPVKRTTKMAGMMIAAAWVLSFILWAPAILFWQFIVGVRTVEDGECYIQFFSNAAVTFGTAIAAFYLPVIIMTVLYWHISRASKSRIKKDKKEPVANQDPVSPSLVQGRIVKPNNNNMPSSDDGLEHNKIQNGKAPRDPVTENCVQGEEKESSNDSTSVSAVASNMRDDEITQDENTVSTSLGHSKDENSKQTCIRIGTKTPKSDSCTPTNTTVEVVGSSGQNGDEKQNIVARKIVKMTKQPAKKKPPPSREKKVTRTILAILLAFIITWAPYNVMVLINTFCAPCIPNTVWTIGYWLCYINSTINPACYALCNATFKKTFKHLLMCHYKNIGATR

[4] = target: Muscarinic acetylcholine receptor M1 and M3 (Homo sapiens) (UniProt P20309+P11229); assay: Selectivity for cloned muscarinic M3 receptor over cloned muscarinic M1 receptor
[5] = target: Muscarinic acetylcholine receptor M3 (Homo sapiens, UniProt P20309); assay: Antagonist activity at cloned muscarinic M3 receptor expressed in CHO cells by measuring calcium mobilization; format: functional, cell-based
Mus musculus [6] = organism: Mus musculus; assay: Effect on metacholine-induced bronchoconstriction in mouse assessed as bronchoprotection at 5 ug after 15 mins; format: functional
Mus musculus [7] = organism: Mus musculus; assay: Effect on metacholine-induced bronchoconstriction in mouse assessed as bronchoprotection at 5 ug after 5 hrs; format: functional

Sequence of Muscarinic acetylcholine receptor M3 (P20309 whole entry): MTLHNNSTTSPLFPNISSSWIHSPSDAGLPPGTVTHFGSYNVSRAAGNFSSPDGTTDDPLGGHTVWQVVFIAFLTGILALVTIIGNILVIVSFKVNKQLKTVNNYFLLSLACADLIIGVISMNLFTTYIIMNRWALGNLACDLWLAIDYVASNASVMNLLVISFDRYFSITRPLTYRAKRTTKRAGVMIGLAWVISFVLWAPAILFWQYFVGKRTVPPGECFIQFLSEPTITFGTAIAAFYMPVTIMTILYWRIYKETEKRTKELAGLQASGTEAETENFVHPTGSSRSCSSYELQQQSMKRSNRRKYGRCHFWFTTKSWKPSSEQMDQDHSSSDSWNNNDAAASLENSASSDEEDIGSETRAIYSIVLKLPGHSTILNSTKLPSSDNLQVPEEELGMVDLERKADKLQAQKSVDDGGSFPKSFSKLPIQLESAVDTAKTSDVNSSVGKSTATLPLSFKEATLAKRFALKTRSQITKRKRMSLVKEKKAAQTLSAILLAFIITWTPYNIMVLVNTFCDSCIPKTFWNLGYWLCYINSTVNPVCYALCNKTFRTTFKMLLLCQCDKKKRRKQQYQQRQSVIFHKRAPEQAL
Sequence of Muscarinic acetylcholine receptor M1 and M3 (Homo sapiens) (P20309 whole entry, looked up, one chain of several): as the sequence (P20309 whole entry) above

Compound	Ratio IC50 [1]	IC50 [2] [nM]	IC50 [3] [nM]	Ratio IC50 [4]	IC50 [5] [nM]	Activity (Mus musculus [6]) [%]	Activity (Mus musculus [7]) [%]
CN1[C@@H]2CC[C@H]1C[C@@H](OC(=O)N(Cc1ccc(C#N)cc1)c1ccsc1)C2	2.6	75.8	363	0.6	137		
CN1[C@@H]2CC[C@H]1C[C@@H](OC(=O)N(Cc1ccccc1Br)c1ccccc1)C2	1.2	1390	1400	1.2	1140		
CN1[C@@H]2CC[C@H]1C[C@H](OC(=O)N(Cc1ccc(Br)cc1)c1ccccc1)C2	2	813	1420	1.1	721		
Cc1ccc(CN(C(=O)O[C@@H]2C[C@H]3CC[C@@H](C2)[N+]3(C)C)c2ccccc2)s1	2.9	15.8	60.8	0.8	21.2		
CN1[C@@H]2CC[C@H]1C[C@@H](OC(=O)N(Cc1cccc(Br)c1)c1ccccc1)C2	0.9	1960	2160	0.9	2310		
C[N+]1(C)[C@@H]2CC[C@H]1C[C@H](OC(=O)N(Cc1ccoc1)c1ccccc1)C2	3.4	12.2	53.7	0.8	16		
C[N+]1(C)[C@@H]2CC[C@H]1C[C@@H](OC(=O)N(Cc1cccc(C#N)c1)c1ccsc1)C2	4.7	55.6	638	0.4	137		
Cc1ccoc1CN(C(=O)O[C@H]1C[C@H]2CC[C@@H](C1)[N+]2(C)C)c1ccccc1	5.4	15.2	229	0.4	42.3		
Cc1ccsc1CN(C(=O)O[C@H]1C[C@H]2CC[C@@H](C1)N2C)c1ccccc1	1.8	117	191	1.1	108		
COc1ccc(CN(C(=O)O[C@H]2C[C@H]3CC[C@@H](C2)[N+]3(C)C)c2ccccc2)cc1	4.4	86	688	0.6	154		
CN1[C@@H]2CC[C@H]1C[C@@H](OC(=O)N(CC1CCCCC1)c1ccsc1)C2	2.5	126	271	1.1	109		
C[N+]1(C)[C@@H]2CC[C@H]1C[C@H](OC(=O)N(Cc1cccc(Br)c1)c1ccccc1)C2	1.5	210	520	0.6	342		
CN1[C@@H]2CC[C@H]1C[C@H](OC(=O)N(Cc1ccoc1)c1ccccc1)C2	1.4	84.5	82.5	1.5	57.3		
CN1[C@@H]2CC[C@H]1C[C@H](OC(=O)N(Cc1ccccc1)c1cccs1)C2	1.2	45.1	26.5	2	22.9		
CN1[C@@H]2CC[C@H]1C[C@H](OC(=O)N(Cc1ccccc1)c1ccsc1)C2	3.6	19.1	39.1	1.7	10.9		
CN1[C@@H]2CC[C@H]1C[C@H](OC(=O)N(Cc1ccccc1)c1ccccc1)C2	3.4	161	254	2.2	74.5		
COc1cccc(CN(C(=O)O[C@@H]2C[C@H]3CC[C@@H](C2)N3C)c2ccccc2)c1	0.5	1210	1170	0.6	2140		
C[N+]1(C)[C@@H]2CC[C@H]1C[C@H](OC(=O)N(Cc1cccs1)c1ccccc1)C2.[Br-]	5.4	2.4	12.5	1	2.3	85	

Compound	Ratio IC50 [1]	IC50 [2] [nM]	IC50 [3] [nM]	Ratio IC50 [4]	IC50 [5] [nM]	Activity (Mus musculus [6]) [%]	Activity (Mus musculus [7]) [%]
CN1[C@@H]2CC[C@H]1C[C@@H](OC(=O)N(Cc1ccsc1)c1ccccc1)C2	3.3	73.8	90.7	2.7	27.5		
C[N+]1(C)[C@@H]2CC[C@H]1C[C@@H](OC(=O)N(Cc1ccsc1)c1ccccc1)C2.[Br-]	10.8	2.6	30.2	0.9	2.8	85	
CN1[C@@H]2CC[C@H]1C[C@@H](OC(=O)N(Cc1ccc(C#N)cc1)c1ccccc1)C2	1.1	847	1350	0.7	1160		
Cc1ccc(CN(C(=O)O[C@@H]2C[C@H]3CC[C@@H](C2)N3C)c2ccccc2)s1	0.4	518	410	2	262		
C[N+]1(C)[C@@H]2CC[C@H]1C[C@H](OC(=O)N(Cc1ccccc1)c1cccs1)C2.[Br-]	5.7	2.7	13.8	0.2	3	85	80
C[N+]1(C)[C@@H]2CC[C@H]1C[C@H](OC(=O)N(Cc1ccccc1)c1ccccc1)C2.[Br-]	10.4	4.5	48	1	4.6	85	
C[N+]1(C)[C@@H]2CC[C@H]1C[C@H](OC(=O)N(CC1CCCCC1)c1ccsc1)C2	5	5.8	55.9	0.5	11.3		
COc1cccc(CN(C(=O)O[C@@H]2C[C@H]3CC[C@@H](C2)[N+]3(C)C)c2ccccc2)c1	1	612	1000	0.6	972		
C[N+]1(C)[C@@H]2CC[C@H]1C[C@H](OC(=O)N(Cc1ccccc1Br)c1ccccc1)C2	1.6	420	666	1	407		
Cc1ccoc1CN(C(=O)O[C@@H]1C[C@H]2CC[C@@H](C1)N2C)c1ccccc1	1.1	349	468	0.8	428		
C[N+]1(C)[C@@H]2CC[C@H]1C[C@H](OC(=O)N(Cc1ccc(Br)cc1)c1ccccc1)C2	7.1	33.4	400	0.6	56.6		
COc1ccc(CN(C(=O)O[C@H]2C[C@H]3CC[C@@H](C2)N3C)c2ccccc2)cc1	1.8	734	1360	0.9	776		
C[N+]1(C)[C@@H]2CC[C@H]1C[C@@H](OC(=O)N(Cc1ccsc1)c1ccsc1)C2.[Br-]	7.2	1.6	7.2	1.6	1	85	
C[N+]1(C)[C@@H]2CC[C@H]1C[C@@H](OC(=O)N(Cc1ccc(C#N)cc1)c1ccccc1)C2	2.1	258	1490	0.4	714		
Cc1ccsc1CN(C(=O)O[C@H]1C[C@H]2CC[C@@H](C1)[N+]2(C)C)c1ccccc1	5.4	3.8	34.7	0.6	6.4		
CN1[C@@H]2CC[C@H]1C[C@H](OC(=O)N(Cc1cccs1)c1ccccc1)C2	1.9	48.3	38.2	2.4	20.3		
CN1[C@@H]2CC[C@H]1C[C@H](OC(=O)N(Cc1ccsc1)c1ccsc1)C2	2.7	13.8	19.6	1.9	7.2		
